The record followed here is article PMC7746380, “In vitro and in vivo efficacy of the novel oral proteasome inhibitor NNU546 in multiple myeloma” (Aging (Albany NY), 2020).

By CLint scaled is commonly meant the capacity of the preparation to metabolise the compound, expressed as a volume cleared per time. What is called half-life is the time in which the quantity being followed falls by half. Low readings indicate fast loss, high ones slow loss. Usually IC50 stands for the concentration at which inhibition is half-maximal.

Each structure is given as a SMILES string.

The nature of data set [1]: Microsomal stability, human liver microsomes. In kind it is in vitro ADME. To be noted: pooled human liver microsomes, 1 μM compound, 37 °C. On the procedure: (§1) Microsomal stabilities were determined by incubating 1 μM of the test compounds with rat, mouse, dog, monkey or human liver microsomes (Xenotech, USA) for different durations at 37 °C. Clearance and T1/2 were calculated by measuring the remaining percentage of test compounds at different time-points. Liquid chromatography/mass spectrometry (Xevo Quadrupole Time-of-Flight Mass Spectrometer; Waters) and an ACQUITY High-Performance Liquid Chromatography (HPLC) system ([…]) were used to determine the relative peak area for the parent compounds.
(§2) Antipyrine and testosterone (5 μM each)
(§3) were used as positive and negative controls, respectively. Abbreviations: t = time; CLint, intrinsic clearance. […]

A short description of data set [2]: Microsomal stability, rat liver microsomes. In kind it is in vitro ADME. The note with it: pooled rat liver microsomes, 1 μM compound, 37 °C. On the procedure:
as §1, §2, §3
On the technique in general: Liver microsomes are vesicles of endoplasmic reticulum, rich in cytochrome P450 enzymes.

Data set [3] in a line: Microsomal stability, mouse liver microsomes. In kind it is in vitro ADME. The note with it: pooled mouse liver microsomes, 1 μM compound, 37 °C. As to the method: as §1, §2, §3
Data set [4] relates to NF-κB/luciferase 293T cells. Description: NF-κB inhibition assay (luciferase reporter, TNF-α stimulated). In kind it is cell-based. The note with it: Homo sapiens, HEK-293T; 6 h pre-treatment, then 10 ng/ml TNF-α for 18 h; read from Figure 3K. On the procedure: To determine the inhibition of NF-κB signaling, the transfected NF-κB/luciferase 293T cells were pre-treated with various concentrations of NNU219 or bortezomib for 6 h and then stimulated with 10 ng/ml of tumor necrosis factor-α (TNF-α) for 18 h, followed by measurement of luciferase activity by using the Dual-Luciferase® Reporter Assay System (Promega Corp., Madison, WI, USA) as previously described.
On the technique in general: A reporter such as luciferase makes a cellular process visible.

The test system of the next data set is ARH77 xenograft. Description: ARH77 MM xenograft model. In kind it is in vivo, mice. The note with it: BIW, 3 weeks. On the procedure: For the ARH77 xenograft model, female BNX mice (n=5; 5-7 weeks old; Shanghai Sippr-BK laboratory Animal Co. Ltd.) were implanted with 5×10^6 of ARH77 cells in Matrigel (1:1) and randomized into treatment and vehicle groups when the mean tumor volume (MTV) reached 100-150 mm^3. For the intravenous treatment groups, mice were treated with bortezomib (1 mg/kg, BIW) or NNU219 (0.4 mg/kg, BIW), respectively. For i.g. administration, mice were treated with ixazomib (5 mg/kg, BIW) and NNU546 (1 mg/kg, QD) or NNU546 (2 mg/kg, QOD). Tumors were measured twice a week and the tumor volume was calculated using the following formula: 0.5 × (length × width^2).

Data set [5] deals with 20S proteasome (CT-L, C-L, T-L activities) in whole blood. Description: In vivo proteasome activity in whole blood. To be noted: 48 h after dose. Further details: species or system mice. On the procedure: For the cellular proteasome activity assays, cells were treated with concentrations of compounds (0-10 μM) for 1 h at 37 °C and the CT-L, C-L and T-L activities of proteasome were evaluated by using the Proteasome-Glo assay reagents (Promega Corp. Madison, WI, USA) according to the manufacturer's protocol. For determination of recovery of cellular proteasome activity, cells were treated with the compounds for 1 h and then washed thrice in PBS to remove the compounds. Cells were incubated in fresh medium for an additional 4, 24 or 72 h at 37 °C. […] Blood samples were collected after 1 h, and whole blood cells were then analyzed for proteasome activity as previously described.
For the pharmacodynamic study, female BNX mice (n=6; 5-7 weeks old; Shanghai Sippr-BK laboratory Animal Co. Ltd.) were given one single dose of NNU219 (0.4 mg/kg) and bortezomib (1 mg/kg) by i.v. administrations or NNU546 (2-15 mg/kg) by oral gavage. […] Tissue homogenates and cell lysates were removed by centrifugation and supernatants were collected for protein quantitation and proteasome activity determination using the Proteasome-Glo assay reagents as described above.

Data set [6] relates to patient-derived primary human MM xenografts. Nature of the data set: Patient-derived MM xenograft (PDX) model in NCG mice. In kind it is in vivo. The note with it: 5 mg/kg i.g., BIW, 3 weeks. An excerpt: The PDX model was generated from biopsies of patients with MM brain manifestation at the Department of Hematology, the 1st Affiliated Hospital of Nanjing Medical University. Freshly excised tumor tissue specimens were washed and cut into 2.5×2.5×2.5 mm^3 pieces in antibiotic-containing L-15 medium. Under anesthesia with pentobarbital, 4-6 weeks-old male NCG mice (n=6; Model Animal Research Center of Nanjing University) were subcutaneously transplanted with the tumor pieces. Tumors were harvested when their size reached 500 mm^3 (Px1 xenografts). Tumor tissue from Px1 xenograft mice was divided into small pieces and then implanted again subcutaneously as described above to obtain Px2 xenografts. This process was once more and the experiments were performed on Px3 xenograft mice, which were randomized into treatment groups when tumor volume reached 100-150 mm^3. Mice were orally administered with ixazomib (5 mg/kg, i.g., BIW) or NNU546 (1 mg/kg, QD). Tumors were measured twice a week.
(In general: Xenograft models place foreign cells or tissue in a host animal.)

For `CC(C)C[C@H](NC(=O)[C@H](Cc1ccccc1)NC(=O)c1cnccn1)B(O)O` [bortezomib], the intrinsic clearance (CLint scaled) at 1 μM turned out to be 58.3 mL/min/kg in data set [1], 200 mL/min/kg in data set [2] and 509 mL/min/kg in data set [3]. The figures for the half-life at 1 μM in data set [1], in data set [2] and in data set [3] were 21.4 min, 12.4 min and 10.7 min, respectively. Further, in data set [4], the half-maximal inhibitory concentration (IC50) amounted to 18.8 nM. The “reduction of tumor volume” value in the data set on ARH77 xenograft (1 mg/kg i.v.) came to 24.9%. In addition, the “proteasome inhibition in whole blood at 48 h” value in data set [5] was “only minimal or no inhibition”.
As to `CC(C)C[C@H](NC(=O)CNC(=O)c1cc(Cl)ccc1Cl)B(O)O` [ixazomib], the “reduction of tumor progression” value in the data set on ARH77 xenograft (5 mg/kg i.g.) was determined as 36.3%. Moreover, the “reduction of tumor volume” value in data set [6] is 30.5%.
